Patent US20220142977A1, “METHODS OF TREATING CONDITIONS RELATED TO THE S1P1 RECEPTOR” (ARENA PHARMACEUTICALS, INC., priority 2019, published 2022)
Counter-ions that a name gives are not always drawn.

Experiments:
[1] = system: patients with moderate to severe ulcerative colitis; assay: Same study: safety and tolerability (TEAEs, heart rate, AV conduction, LFTs, infections); type: in vivo, human
[2] = system: patients with moderate to severe ulcerative colitis; assay: Randomized, double-blind, placebo-controlled dose-ranging study in ulcerative colitis: efficacy (Mayo scores, endoscopic improvement, remission); type: in vivo, human; details: for improvement in 2-component Mayo Score (0 to 6) relative to placebo / improvement in Total Mayo Score (0 to 12) relative to placebo: Week 12
Description: A randomized, double-blind, placebo-controlled, parallel-group, dose-ranging study to assess safety and efficacy of two orally administered doses (1 mg and 2 mg) of Compound 1 in patients with ulcerative colitis was conducted. The table below provides a summary of demographic data by treatment group.
Patients were randomized into a double-blind, placebo-controlled study to receive once daily (q.d.) doses of the L-arginine salt of Compound 1 (1 mg or 2 mg) or matching placebo in a 1:1:1 ratio for 12 weeks. The trial enrolled 156 patients with moderate to severe ulcerative colitis (3-component Mayo score of 4-9 that includes endoscopic subscore ≥2, rectal bleeding score ≥1).
The treatment formulation was composed of immediate-release, hard gelatin capsules containing L-arginine salt of Compound 1. The placebo was composed of hard gelatin capsules containing microcrystalline cellulose.
Patients were instructed to take their capsule on an empty stomach (overnight fast of approximately 8 hours) and to avoid eating for approximately 1 hour after dosing.
The primary objective of this proof-of-concept study was to determine the effect of treatment with the L-arginine salt of Compound 1 in changing 3-component Mayo Clinic score (score ranging from 0 to 9, including stool frequency, rectal bleeding and findings on endoscopy) at 12 weeks.
Secondary endpoints were the proportion of patients who achieve endoscopic improvement at Week 12; change in 2-component Mayo Score (score ranging from 0 to 6, including rectal bleeding and findings on endoscopy) at Week 12; and change in Total Mayo Score (score ranging from 0 to 12, including stool frequency, rectal bleeding, findings on endoscopy, and physician global assessment) at Week 12.
Exploratory endpoints included change from baseline in lymphocyte counts at Weeks 1, 2, 4, 8, and 12; proportion of patients achieving clinical remission at Week 12; and proportion of patients who achieve clinical response at Week 12.
ANCOVA model, adjusted for current oral corticosteroid use, prior exposure to TNF-alpha antagonists, and baseline value, was used to estimate changes in Mayo Clinic Score. Mantel-Haenszel method (estimated treatment difference by adjusting current oral corticosteroid use and prior exposure to TNF-alpha antagonists) used to estimate proportion difference for dichotomous parameters. Missing individual Mayo subscores impacting efficacy measures were imputed using multiple imputation methodology with observed case analysis for sensitivity. Statistical testing was pre-specified as one-sided with p<0.025 reflecting conventional statistical significance. Hierarchical closed testing procedure for primary and secondary endpoints at 0.05 alpha level was used.

## O=C(O)C[C@H]1CCc2c1[nH]c1ccc(OCc3ccc(C4CCCC4)c(C(F)(F)F)c3)cc21 [L-arginine salt of Compound 1]
[1]; 2 mg, placebo 11.1%
  serious adverse events (SAEs), % of patients: 0%
[1]; Day 1, both 1 mg and 2 mg groups
  heart rate on hourly ECGs (in words): mild decrease
[1]; Day 1, either group (1 mg, 2 mg), any timepoint
  mean change in heart rate on hourly ECGs: < 10 bpm
[1]; assessed by investigators, majority upper respiratory tract infections
  severity of adverse events in infections and infestations: mild or moderate
[1]; in vivo
  increases in liver function tests (LFTs) compared to placebo: no increases
  reports of macular edema: no reports
  reports of pulmonary function test abnormalities: no reports
  serious adverse events related to heart rate changes or AV block: No serious adverse events
[1]; throughout the study
  discontinuations from study related to bradycardia or AV block: no discontinuations
  impact on heart rate and AV conduction: low
[2]; 1 mg q.d. oral, week 12, p=0.146, not significant
  improvement in 3-component Partial Mayo Score (0 to 9) relative to placebo: 0.43
[2]; 1 mg, p=0.086, not significant
  improvement in 2-component Mayo Score (0 to 6) relative to placebo: 0.39
[2]; 1 mg, p=0.128, not significant
  improvement in Total Mayo Score (0 to 12) relative to placebo: 0.60
[2]; 2 mg q.d. oral, week 12, p=0.009
  improvement in 3-component Partial Mayo Score (0 to 9) relative to placebo: 0.99
[2]; 2 mg, p=0.010
  improvement in Total Mayo Score (0 to 12) relative to placebo: 1.27
[2]; dose not printed (2 mg implied), p=0.002
  improvement in 2-component Mayo Score (0 to 6) relative to placebo: 0.84
[2]; high dose (2 mg), week 12
  primary and all secondary endpoints: achieved the primary and all secondary endpoints with statistical significance

## O=C(O)C[C@H]1CCc2c1[nH]c1ccc(OCc3ccc(C4CCCC4)c(C(F)(F)F)c3)cc21 [Compound 1, (R)-2-(7-(4-cyclopentyl-3-(trifluoromethyl)benzyloxy)-1,2,3,4-tetrahydrocyclopenta[b]indol-3-yl)acetic acid]
[2]; subgroups, 2 mg, week 12 (FIGS. 3A-3D)
  improvement in individuals with prior vedolizumab use or a history of pancolitis (subgroup analyses): improvement is not seen
